The target of this experiment is T1, EP2 receptor (Homo sapiens, UniProt P43116).
T1 construct: SF295 glioblastoma cells express high endogenous EP2 and no EP4; host or cells: SF295 glioblastoma cells
The experiment can be described thus: hEP2 cAMP assay (SF295 glioblastoma cells, HTRF cAMP, PGE2 stimulation). In kind it is cell-based. The note with it: antagonistic activity. The procedure, abridged: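 SF295 glioblastoma cells with endogenous EP2 and no EP4, in HBSS/HEPES/BSA with 2 mM IBMX, pre-incubated 45 min at room temperature with compound, then stimulated 30 min with 75 nM PGE2 (EC80). cAMP measured by HTRF; IC50 fitted from duplicate % cAMP versus DMSO control.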

From patent US11325899B2, “Benzofurane and benzothiophene derivatives as PGE2 receptor modulators” (IDORSIA PHARMACEUTICALS LTD, priority 2017, dated 2022) come the findings set out here.

T1 sequence (P43116 whole entry): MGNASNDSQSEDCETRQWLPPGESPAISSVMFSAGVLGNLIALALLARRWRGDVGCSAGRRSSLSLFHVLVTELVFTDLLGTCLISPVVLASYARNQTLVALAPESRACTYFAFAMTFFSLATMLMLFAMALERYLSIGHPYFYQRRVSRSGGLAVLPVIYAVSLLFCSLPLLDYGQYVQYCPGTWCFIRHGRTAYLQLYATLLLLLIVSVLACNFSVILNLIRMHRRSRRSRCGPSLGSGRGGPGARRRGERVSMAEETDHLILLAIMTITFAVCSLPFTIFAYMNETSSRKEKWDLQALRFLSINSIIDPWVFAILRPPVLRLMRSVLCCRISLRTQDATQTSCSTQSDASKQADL

In turn, `Cc1sc2c(C)cc(F)cc2c1CCNc1cc(-c2ccc(C(=O)O)c(OC3CCCC3)c2)ncn1` [Example 152, 2-Cyclopentyloxy-4-{6-[2-(5-fluoro-2,7-dimethyl-benzo[b]thiophen-3-yl)-ethylamino]-pyrimidin-4-yl}-benzoic acid] returned an IC50 of 84 nM.
Consider `COc1ccc(Cl)c2c(CCNc3cc(-c4ccc(C(=O)O)c(OC5CCCC5)c4)ncn3)c(C)sc12` [Example 153, 4-{6-[2-(4-Chloro-7-methoxy-2-methyl-benzo[b]thiophen-3-yl)-ethylamino]-pyrimidin-4-yl}-2-cyclopentyloxy-benzoic acid], for which inhibition was half-maximal at 212 nM (IC50). This IC50 is about 2.5-fold higher than that of the molecule before.
`Cc1oc2c(C)cc(F)cc2c1CCNc1cc(-c2ccc(C(=O)O)c(OC3CCCC3)c2)ncn1` [Example 154, 2-Cyclopentyloxy-4-{6-[2-(5-fluoro-2,7-dimethyl-benzofuran-3-yl)-ethylamino]-pyrimidin-4-yl}-benzoic acid] yielded an IC50 of 70 nM.
To `CCOc1cc(-c2cc(NCCc3c(C)sc4c(C)cc(F)cc34)ncn2)ccc1-c1noc(=O)[nH]1` [Example 155, 3-(2-Ethoxy-4-{6-[2-(5-fluoro-2,7-dimethyl-benzo[b]thiophen-3-yl)-ethylamino]-pyrimidin-4-yl}-phenyl)-[1,2,4]oxadiazol-5(4H)-one [tautomeric form: 3-(2-ethoxy-4-(6-((2-(5-fluoro-2,7-dimethylbenzo[b]thiophen-3-yl)ethyl)amino)pyrimidin-4-yl)phenyl)-[1,2,4]oxadiazol-5-ol]] belongs 87 nM; to `CCOc1cc(-c2cc(NCCc3c(C)sc4c(C)cc(F)cc34)ncn2)sc1C(=O)NS(N)(=O)=O` [Example 156, 3-Ethoxy-5-(6-((2-(5-fluoro-2,7-dimethylbenzo[b]thiophen-3-yl)ethyl)amino)pyrimidin-4-yl)-N-sulfamoylthiophene-2-carboxamide], 10 nM.
`CCOc1cc(-c2cc(NCCc3c(C)sc4c(C)cc(F)cc34)ncn2)sc1C(=O)NS(C)(=O)=O` [Example 157, N-(3-Ethoxy-5-{6-[2-(5-fluoro-2,7-dimethyl-benzo[b]thiophen-3-yl)-ethylamino]-pyrimidin-4-yl}-thiophene-2-carbonyl)-methanesulfonamide] gave an IC50 of 18 nM.
For `CCOc1cc(-c2cc(NCCc3c(C)sc4c(C)cc(F)cc34)ncn2)sc1-c1nnn[nH]1` [Example 158, {6-[4-Ethoxy-5-(1H-tetrazol-5-yl)-thiophen-2-yl]-pyrimidin-4-yl}-[2-(5-fluoro-2,7-dimethyl-benzo[b]thiophen-3-yl)-ethyl]-amine], the IC50 is 4 nM. This IC50 is about 4.5-fold lower than that of the molecule before.
`CCOc1nc(-c2cc(NCCc3c(C)sc4c(C)cc(F)cc34)ncn2)sc1C(=O)O` [Example 160, 4-Ethoxy-2-{6-[2-(5-fluoro-2,7-dimethyl-benzo[b]thiophen-3-yl)-ethylamino]-pyrimidin-4-yl}-thiazole-5-carboxylic acid] displayed an IC50 of 10 nM.
As for `CCc1nc(-c2cc(NCCc3c(C)sc4c(C)cc(F)cc34)ncn2)sc1C(=O)O` [Example 161, 4-Ethyl-2-{6-[2-(5-fluoro-2,7-dimethyl-benzo[b]thiophen-3-yl)-ethylamino]-pyrimidin-4-yl}-thiazole-5-carboxylic acid], the IC50 turned out to be 27 nM.
The molecule `CCOc1nc(-c2cc(NCCc3c(C)sc4c(C)cc(F)cc34)ncn2)sc1-c1noc(=O)[nH]1` [Example 162, 3-(4-Ethoxy-2-{6-[2-(5-fluoro-2,7-dimethyl-benzo[b]thiophen-3-yl)-ethylamino]-pyrimidin-4-yl}-thiazol-5-yl)-[1,2,4]oxadiazol-5(4H)-one [tautomeric form: 3-(4-ethoxy-2-(6-((2-(5-fluoro-2,7-dimethylbenzo[b]thiophen-3-yl)ethyl)amino)pyrimidin-4-yl)thiazol-5-yl)-[1,2,4]oxadiazol-5-ol]] yielded a 50% inhibitory concentration (IC50) of 35 nM.
Molecule `CCc1nc(-c2cc(NCCc3c(C)sc4c(C)cc(F)cc34)ncn2)sc1-c1noc(=O)[nH]1` [Example 163, 3-(4-Ethyl-2-{6-[2-(5-fluoro-2,7-dimethyl-benzo[b]thiophen-3-yl)-ethylamino]-pyrimidin-4-yl}-thiazol-5-yl)-[1,2,4]oxadiazol-5(4H)-one [tautomeric form: 3-(4-ethyl-2-(6-((2-(5-fluoro-2,7-dimethylbenzo[b]thiophen-3-yl)ethyl)amino)pyrimidin-4-yl)thiazol-5-yl)-[1,2,4]oxadiazol-5-ol]] showed an IC50 of 20 nM.
To `CCOc1cc(-c2cc(NCCc3c(C#N)sc4c(OC)cccc34)ncn2)ccc1CC(=O)O` [Example 164, (4-{6-[2-(2-Cyano-7-methoxy-benzo[b]thiophen-3-yl)-ethylamino]-pyrimidin-4-yl}-2-ethoxy-phenyl)-acetic acid] belongs 348 nM; to `CCOc1cc(-c2cc(NCCc3c(C#N)sc4c(C)cc(F)cc34)ncn2)cc(F)c1CC(=O)O` [Example 165, (4-{6-[2-(2-Cyano-5-fluoro-7-methyl-benzo[b]thiophen-3-yl)-ethylamino]-pyrimidin-4-yl}-2-ethoxy-6-fluoro-phenyl)-acetic acid], 129 nM; to `Cc1sc2c(C)cccc2c1CCNc1cc(-c2ccc(C(=O)O)c(SCC(C)C)c2)ncn1` [Example 166, 4-{6-[2-(2,7-Dimethyl-benzo[b]thiophen-3-yl)-ethylamino]-pyrimidin-4-yl}-2-isobutylsulfanyl-benzoic acid], 183 nM.
In the case of `CCCc1cc(-c2cc(NCCc3c(C#N)sc4c(C)cc(F)cc34)ncn2)ccc1C(=O)O` [Example 167, 4-{6-[2-(2-Cyano-5-fluoro-7-methyl-benzo[b]thiophen-3-yl)-ethylamino]-pyrimidin-4-yl}-2-propyl-benzoic acid], the IC50 stood at 11 nM.
To `COc1cc(-c2cc(NCCc3c(C#N)sc4c(C)cc(F)cc34)ncn2)ccc1CC(=O)O` [Example 168, (4-{6-[2-(2-Cyano-5-fluoro-7-methyl-benzo[b]thiophen-3-yl)-ethylamino]-pyrimidin-4-yl}-2-methoxy-phenyl)-acetic acid] belongs 3030 nM; to `CCCOc1cc(-c2cc(NCCc3c(C#N)sc4c(C)cc(F)cc34)ncn2)ccc1CC(=O)O` [Example 169, (4-{6-[2-(2-Cyano-5-fluoro-7-methyl-benzo[b]thiophen-3-yl)-ethylamino]-pyrimidin-4-yl}-2-propoxy-phenyl)-acetic acid], 142 nM.
`CCCc1cc(-c2cc(NCCc3c(C#N)sc4c(C)cc(F)cc34)ncn2)ccc1CC(=O)O` [Example 170, (4-{6-[2-(2-Cyano-5-fluoro-7-methyl-benzo[b]thiophen-3-yl)-ethylamino]-pyrimidin-4-yl}-2-propyl-phenyl)-acetic acid] had a concentration for half-maximal inhibition (IC50) of 116 nM.
In the case of `Cc1cc(F)cc2c(CCNc3cc(-c4ccc(CC(=O)O)c(OC(C)C)c4)ncn3)c(C#N)sc12` [Example 171, (4-{6-[2-(2-Cyano-5-fluoro-7-methyl-benzo[b]thiophen-3-yl)-ethylamino]-pyrimidin-4-yl}-2-isopropoxy-phenyl)-acetic acid], the IC50 turned out to be 275 nM.
Molecule `Cc1cc(F)cc2c(CCNc3cc(-c4ccc(C(=O)O)c(OC(C)C)c4)ncn3)c(C#N)sc12` [Example 172, 4-{6-[2-(2-Cyano-5-fluoro-7-methyl-benzo[b]thiophen-3-yl)-ethylamino]-pyrimidin-4-yl}-2-isopropoxy-benzoic acid] came in with a concentration for half-maximal inhibition (IC50) of 50 nM.

By IC50 is commonly meant the concentration at which inhibition is half-maximal. Read a low IC50 as higher potency.
